Data taken from article PMC8587750, “Structural Optimization and Biological Activity of Pyrazole Derivatives: Virtual Computational Analysis, Recovery Assay and 3D Culture Model as Potential Predictive Tools of Effectiveness against Trypanosoma cruzi” (Molecules, 2021).
Read-outs that look alike come from different tables or passages of the source.

Experiments:
[1] = tested on: intracellular amastigotes of T. cruzi; assay: Activity against intracellular amastigotes in infected Vero cells (Dm28c-Luc, 72 h); assay type: cell-based, Trypanosoma cruzi; conditions: for IC50 / IC90: Trypanosoma cruzi; for IC90: read-out: Trypanocidal Activity Intracellular Amastigotes IC90; for Intracellular Amastigotes SI: CC50 of Vero cells/IC50 of intracellular amastigote
Text: (§1) T. cruzi Dm28c clone genetically modified to express luciferase, kindly provided by Dr. Cristina Henriques from Oswaldo Cruz Institute–Fiocruz, was used in the drug assays. Trypomastigotes were harvested from T. cruzi-infected Vero cultures supernatants at 4th days post-infection (dpi) and used in the phenotypic screening assay. For intracellular amastigotes assays, Vero cells (2D and 3D cultures) were infected at a ratio of 10:1 parasites/host cells.
The effect of the pyrazole derivatives against intracellular amastigotes was also evaluated after 72 h treatment (37 °C) with compound concentrations ranging from 0.04–100 µM [13]. Parasite viability, measured by luminescent signal, was determined after luciferin (300 µg/mL) addition. IC50 and IC90 values were calculated by linear regression. Selectivity index (SI) was calculated as the ratio of the CC50 to IC50 values. The non-toxic concentration of DMSO (less than 1% v/v) was used in all assays. A minimum of three independent assays was carried out in duplicate.

[2] = tested on: trypomastigote forms of T. cruzi; assay: Phenotypic screening against T. cruzi trypomastigotes (Dm28c-Luc, luciferase viability, 24 h); assay type: cell-based, Trypanosoma cruzi; conditions: for IC50 / IC90: Trypanosoma cruzi, Dm28c-Luc, 24 h; for IC50: read-out: Trypanocidal Activity Trypomastigotes IC50; for IC90: read-out: Trypanocidal Activity Trypomastigotes IC90; for Trypomastigotes SI: CC50 of Vero cells/IC50 of trypomastigote
Text: as §1
The phenotypic compound screening was performed using transgenic T. cruzi parasites expressing the firefly luciferase (Dm28c-Luc). Trypomastigotes (1 × 10^6 parasites/well) were treated for 24 h at 37 °C with the pyrazole derivatives and Bz (0.04–100 μM), followed by incubation with luciferin substrate (300 µg/mL) to determine parasite viability through luciferase activity. The concentration that reduces the number of viable parasites by 50% (IC50) or 90% (IC90) was calculated by linear regression. The luminescent signal was read on a Glomax-Multi Detection plate reader (Promega Corporation, Madison, WI, EUA)). At least three independent assays were performed in duplicate.

[3] = Cytotoxicity in vitro assay (ATP, CellTiter Glo, 72 h); assay type: cell-based; conditions: African green monkey, Vero cells
Description: Vero cells, obtained from the Rio de Janeiro Cell Bank (BCRJ code 0245), were cultured in RPMI-1640 supplemented with 10% fetal bovine serum (FBS) and 1 mM L-glutamine, as previously described. Vero cells were used for drug screening assays and to obtain trypomastigote forms of T. cruzi.
Vero cells were used as a cellular model to analyze the toxic effect of pyrazole derivatives, series 1(a–l), 2(a–l), 3(a–n), 4(a–c), and 5(a–c), and Benznidazole (Bz) on mammalian cells. Briefly, the cells, plated on 96-well white opaque microplate (1.5 × 10^4 cells/well), were treated for 72 h at 37 °C with a wide range concentration (500–1.95 µM) of the pyrazole derivatives. The cell viability was determined by measuring ATP levels using the CellTiter Glo Kit (Promega Corporation, Madison, WI, EUA) followed by reading the luminescent signal on the Glomax-Multi Detection plate reader (Promega Corporation, Madison, WI, EUA)). All treatments and controls were performed at a low concentration of DMSO (≤1%). The 50% cytotoxic concentration values (CC50; the concentration of the compound that reduces 50% of the cell viability) were estimated by linear regression analysis. Three independent assays were performed in duplicate.

[4] = tested on: intracellular parasites in T. cruzi-infected microtissue; assay: 3D-microtissue-based phenotypic screening (T. cruzi-infected Vero spheroids); assay type: cell-based, Trypanosoma cruzi; conditions: 72 h treatment; Bz 100 µM
Description: Vero cells were seeded at a density of 2 × 10^5 cells/well in a 96-well U-bottom plate previously coated with agarose (1%). The 3D cultures, adapted from, were cultivated for 4 days in RPMI 1640 medium supplemented with 10% FBS and L-glutamine for complete 3D microtissue formation. The 3D culture model was used as a tool to evaluate the effectiveness of promising derivatives in eliminating intracellular parasites in the microtissue.
The 3D-microtissue-based phenotypic screening was performed with the promising pyrazole derivatives. […] At the end of the treatment, the 3D cultures supernatants were removed, and luciferin (300 μg/mL) was added to the spheroids. The luminescent signal was read on the Glomax-Multi Detection reader (Promega Corporation, Madison, WI, USA). Bz (100 µM) and DMSO (≤1%) were used as positive and negative control, respectively. The IC50 value was calculated by linear regression. At least three independent assays were performed in quadruplicate.

[5] = tested on: T. cruzi (Dm28c-Luc) in Vero cells; assay: Reversibility (washout) assay, parasite recrudescence in infected Vero cells; assay type: cell-based, Trypanosoma cruzi; conditions: 100 µM, 72 h after washout
Description: To address the question of whether the treatment with 3g, 3j, and 3m leads to parasite clearance, an intracellular T. cruzi washout assay was performed as a strategy for monitoring the parasite recrudescence. In this approach, cultures of infected Vero cells (Dm28c-Luc) were treated for 72 h at IC90 and 50 µM (2 to 5-fold de IC90) concentrations of the promising compounds 3g, 3j, and 3m and, after washing the cell monolayers, the cultures were kept for another 72 h without drug treatment. Both cell monolayers and their supernatants were evaluated for the presence of viable parasites after luciferin addition. All derivatives analyzed relapsed at the IC90 concentration (Figure 3). However, treatment with 3g, 3j, and 3m led to a significant reduction in the parasite load, reaching a decrease of 4.5-, 1.9-, and 8.7-fold, respectively, when compared to untreated infected Vero cells cultures (Figure 3). The emergence of trypomastigotes in the supernatant, at IC90 concentration, was observed three days after removal of drug pressure, but with a significant reduction in viable parasites compared to untreated cultures (Figure 3). Parasite recrudescence was not seen in 100 µM Bz treatment (Figure 3).
The washout assay, adapted from, was performed to evaluate the promising compounds efficacy. […] After successive washing, the cultures were maintained for an additional 72 h at 37 °C in RPMI 1640 medium supplemented with 10% SFB in the absence of the compound. Luciferin (300 µg/mL) was added separately to the culture supernatant, previously removed, and the cell monolayer. The luminescent signal was read on the Glomax-Multi Detection reader (Promega Corporation, Madison, WI, USA). Bz (100 µM) and DMSO (≤1%) were used as positive and negative reaction controls, respectively.

[6] = tested on: T. cruzi cysteine protease; assay: Cysteine protease activity of trypomastigote total protein extracts (Z-FR-AMC); assay type: biochemical, Trypanosoma cruzi; conditions: concentrations ≥ 11.11 µM
Description: Total protein extract from trypomastigotes (Dm28c-Luc; 10^8 parasites/mL) were extracted with lysis buffer. Cysteine protease activity of extracts (5 μg) was measured in acetate buffer using fluorogenic peptide substrate (60 μM of 7-Amino-4-Methylcoumarin hydrochloride, CBZ-L-Phenylalanyl-L-Arginine amide (Z-FR-AMC). Total protein extracts were incubated for 45 min at room temperature with the compounds and changes in relative fluorescence units monitored using a SpectraMaxM2e spectrophotometer (Molecular Devices, Sunnyvale, CA, USA) for 1 h with excitation at 370 nm and emission at 460 nm. The inhibition assays were performed by coincubation with different compounds (3g, 3j, and 3m) and concentrations (300–11.11 µM) and transepoxysuccinyl-L-leucylamido-(4-guanidino) butane (E-64). Additional control was carried out with DMSO (≤1%). Enzymatic activity was expressed in µmol/min/mg of protein and the residual activity in percentage.
Figure 6 Inhibition of T. cruzi cysteine protease activity. Total protein extracts of trypomastigotes (5 µg), was incubated at different concentrations (300–11.11 µM) of compounds E64 (black circle), 3g (black triangle), 3j (black square) and 3m (white circle) in enzyme activation buffer pH 5.0, at 37 °C. Enzyme activity was measured using a specific fluorogenic peptide substrate Z-FR-AMC (60 µM). Results are presented as percentage of inhibition of enzyme activity (%) and represent the mean and standard deviation (±) of three independent experiments.

[7] = Vero, 72 h, Vero cells infected with Dm28c-Luc, 72 h, read-out: Trypanocidal Activity Intracellular Amastigotes IC50
[8] = Vero, negative log of the IC50 value in molar, read-out: Intracellular Amastigotes pIC50 (converted)
[9] = Vero cells infected with Dm28c-Luc, 72 h

Row | SMILES | IC50 [1, 7] | IC50 [1, 8] | IC90 [1, 9] | IC50 [2] | IC90 [2] | CC50 at 72 h [3] | melting point | Intracellular Amastigotes SI [1] | Trypomastigotes SI [2] | viability of intracellular parasites in microtissue, luminescence intensity (ALU) [4] | IC50 ([1]; Vero cells infected with Dm28c-Luc, 72 h, read-out: Trypanocidal Activity Intracellular Amastigotes IC50) | parasite recrudescence [5] | inhibition of cysteine protease enzymatic activity [6]
1 | CC1CN=C(c2cnn(-c3ccc(Cl)c(Cl)c3)c2N)N1 (stereo not shown) [Compound 5c, 5-amino-1-(3,4-dichlorophenyl)-4-(-4(5)-methyl-4,5-dihydro-1H-imidazol-2-yl)-1H-pyrazole] | 34.3 ± 4.24 µM | 34.7 µM | > 100 µM | > 100 µM | > 100 µM | 343 ± 37 µM | 191 to 193 °C |  |  |  |  |  | 
2 | Cc1nn(-c2cccc(Cl)c2)c(N)c1C1=NCCN1 [Compound 4a, 5-amino-1-(3-chlorophenyl)-3-methyl-4-(4,5-dihydro-1H-imidazol-2-yl)-1H-pyrazole] | > 100 µM | > 100 µM | > 100 µM | > 100 µM | > 100 µM | > 500 µM | 116 to 120 °C |  |  |  |  |  | 
3 | Clc1cc(Cl)cc(-n2cc(C3=NCCN3)cn2)c1 [Compound 3d, 1-(3,5-dichlorophenyl)-4-(4,5-dihydro-1H-imidazol-2-yl)-1H-pyrazole] | 54.9 ± 7.12 µM | 55 µM | > 100 µM | 66.3 ± 5.53 µM | 93.5 ± 1.56 µM | 384 ± 23 µM | 83 to 84 °C | 6.99 | 5.78 |  |  |  | 
4 | O=C(Cn1ccnc1[N+](=O)[O-])NCc1ccccc1 [Bz, benznidazole, reference compound] |  | 4.68 µM | > 100 µM | 18.7 ± 4.58 µM | > 100 µM | > 500 µM |  | >107 | >26.7 | 18,858 ± 3726 ALU | 4.67 ± 0.22 µM | not seen | 
5 | Clc1cccc(Cl)c1-n1cc(C2=NCCN2)cn1 [Compound 3f, 1-(2,6-dichlorophenyl)-4-(4,5-dihydro-1H-imidazol-2-yl)-1H-pyrazole] | 82 ± 2.52 µM | 81.3 µM | > 100 µM | > 100 µM |  | > 500 µM | 221 to 223 °C | >6 |  |  |  |  | 
6 | CC(C)C[C@H](NC(=O)[C@H]1O[C@@H]1C(=O)O)C(=O)NCCCCN=C(N)N [Compound E-64, transepoxysuccinyl-L-leucylamido-(4-guanidino) butane, reference compound] |  |  |  |  |  |  |  |  |  |  |  |  | greater than 80%
7 | CC1CN=C(c2cnn(-c3cccc(Cl)c3)c2N)N1 (stereo not shown) [Compound 5a, 5-amino-1-(3-chlorophenyl)-4-(4-(5)-methyl-4,5-dihydro-1H-imidazol-2-yl)-1H-pyrazole] | > 100 µM | > 100 µM | > 100 µM | > 100 µM | > 100 µM | > 500 µM | 169 to 172 °C |  |  |  |  |  | 
8 | Fc1cccc(-n2cc(C3=NCCN3)cn2)c1 [Compound 3i, 4-(4,5-dihydro-1H-imidazol-2-yl)-1-(3-fluorophenyl)-1H-pyrazole] | 64.1 ± 7.09 µM | 64.6 µM | > 100 µM | > 100 µM |  | > 500 µM | 164 to 167 °C |  |  |  |  |  | 
9 | Clc1ccc(-n2cc(C3=NCCN3)cn2)cc1Cl [Compound 3e, 1-(3,4-dichlorophenyl)-4-(4,5-dihydro-1H-imidazol-2-yl)-1H-pyrazole] | 76.5 ± 8.79 µM | 75.9 µM | > 100 µM | 64.9 ± 2.85 µM | 93.74 ± 0.73 µM | 480 ± 21.7 µM | 185 to 186 °C | 6.26 | 7.39 |  |  |  | 
10 | Fc1ccc(-n2cc(C3=NCCN3)cn2)cc1 [Compound 3h, 4-(4,5-dihydro-1H-imidazol-2-yl)-1-(4-fluorophenyl)-1H-pyrazole] | 64.5 ± 3.81 µM | 64.6 µM | > 100 µM | > 100 µM |  | > 500 µM | 210 to 212 °C |  |  |  |  |  | 
11 | Cc1nn(-c2cc(Cl)cc(Cl)c2)c(N)c1C1=NCCN1 [Compound 4b, 5-amino-1-(3,5-dichlorophenyl)-3-methyl-4-(4,5-dihydro-1H-imidazol-2-yl)-1H-pyrazole] | 90.7 ± 13.2 µM | 91.2 µM | > 100 µM | > 100 µM | > 100 µM | > 500 µM | 193 to 194 °C | >5.51 |  |  |  |  | 
12 | Cc1nn(-c2ccc(Cl)c(Cl)c2)c(N)c1C1=NCCN1 [Compound 4c, 5-amino-1-(3,4-dichlorophenyl)-3-methyl-4-(4,5-dihydro-1H-imidazol-2-yl)-1H-pyrazole] | 93.8 ± 16.4 µM | 93.3 µM | > 100 µM | > 100 µM | > 100 µM | 355 ± 17.7 µM | 221 to 224 °C | 3.78 |  |  |  |  | 
